Measured values: US20180311238A1, “Selective Agonist Of a6 Containing nAChRs” (Saniona A/S, priority 2017, published 2018)

How the values were obtained:
[1] = target: T1, neuromuscular α1-containing receptor subtypes (Homo sapiens, UniProt P02708+P07510+Q07001); assay: FLIPR fluorescence-based calcium assay, TE671 cells; type: cell-based; conditions: FLIPR calcium response relative to nicotine
T1 construct: endogenous in cells; host or cells: TE671
Protocol: The level of agonist activity of 9-methyl-3-pyridin-3-yl-3,9-diaza-bicyclo[3.3.1]nonane was tested in functional fluorescence-based calcium assays using TE671 cells and HEK293 cells stably expressing human α6/α3β2β3^V273S, α3β4 and α4β2 nicotinic receptors.
Cells were plated on poly-D-lysine coated 384-well microtiter plates and were allowed to proliferate for 24 h. Dye loading was performed by incubating cells with 2 μM fluo-4/AM for 1.5 h at room temperature. Dye not taken up by cells was removed by aspiration followed by three washing cycles with 25 μl of NMDG Ringer buffer (in mM: 140 NMDG, 5 KCl, 1 MgCl2, 10 CaCl2, 10 HEPES, pH 7.4) after which the cells were kept in 25 μl of the same buffer. The microtiter plates were placed in a Fluoremetric Imaging Plate Reader (FLIPR) and subjected to test compound at various concentrations. Background subtracted compound-mediated calcium responses were normalized to 100 μM nicotine control responses and pEC50 as well as relative maximal efficacy values were determined.
The neuromuscular nAChRs subtype—composed of α1β1γδ subunits—can be studied in the human medulloblastoma cell line TE671, and the α1 subunit can be specifically labelled with ^3H-α-bungarotoxin.

α7 = target: T2, α7 (Homo sapiens, UniProt P36544); assay: Oocyte two-electrode voltage-clamp electrophysiology, α7; type: cell-based; conditions: Xenopus laevis oocytes, peak currents
T2 construct: expressed in transfected cells; host or cells: Xenopus laevis oocytes injected with cRNA
T2 sequence (P36544 23-502): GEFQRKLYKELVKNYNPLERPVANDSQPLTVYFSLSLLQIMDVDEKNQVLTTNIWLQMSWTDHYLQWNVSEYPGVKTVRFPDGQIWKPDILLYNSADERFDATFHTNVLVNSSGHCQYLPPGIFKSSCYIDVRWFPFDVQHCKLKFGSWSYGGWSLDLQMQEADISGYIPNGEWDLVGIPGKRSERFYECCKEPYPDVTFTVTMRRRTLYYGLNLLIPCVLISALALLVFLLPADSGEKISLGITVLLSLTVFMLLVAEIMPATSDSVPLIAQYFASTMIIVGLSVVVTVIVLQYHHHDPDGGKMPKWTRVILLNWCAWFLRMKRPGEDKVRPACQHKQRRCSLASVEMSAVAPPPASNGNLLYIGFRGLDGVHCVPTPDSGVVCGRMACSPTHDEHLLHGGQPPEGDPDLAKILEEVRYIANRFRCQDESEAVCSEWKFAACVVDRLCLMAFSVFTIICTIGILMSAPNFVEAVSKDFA
Protocol: Two-electrode voltage-clamp electrophysiology recordings were done in Xenopus laevis oocytes injected with approximately 25 ng cRNA. After injection, oocytes were incubated at 17° C. for 2-3 days. During measurements, an oocyte was placed in a custom designed recording chamber where compound solutions are added directly to the oocyte via a glass capillary. Compound solutions were prepared on the day of measurement and applied to oocytes with a flowrate of 2.0 ml/min. All datasets were baseline subtracted and responses to individual applications were read as peak current amplitudes. Concentration response relationships describing compound effect at a fixed acetylcholine concentration were fitted to a monophasic Hill-equation. Potency (EC50) and efficacy values (fitted maximal current relative to maximal current of acetylcholine).

[2] = target: T3, neuromuscular nAChRs subtype composed of α1β1γδ subunits (Homo sapiens, UniProt P02708+P07510+Q07001); assay: biochemical; type: binding
T3 construct: endogenous in cells; host or cells: TE671
T3 sequence (P02708 21-457): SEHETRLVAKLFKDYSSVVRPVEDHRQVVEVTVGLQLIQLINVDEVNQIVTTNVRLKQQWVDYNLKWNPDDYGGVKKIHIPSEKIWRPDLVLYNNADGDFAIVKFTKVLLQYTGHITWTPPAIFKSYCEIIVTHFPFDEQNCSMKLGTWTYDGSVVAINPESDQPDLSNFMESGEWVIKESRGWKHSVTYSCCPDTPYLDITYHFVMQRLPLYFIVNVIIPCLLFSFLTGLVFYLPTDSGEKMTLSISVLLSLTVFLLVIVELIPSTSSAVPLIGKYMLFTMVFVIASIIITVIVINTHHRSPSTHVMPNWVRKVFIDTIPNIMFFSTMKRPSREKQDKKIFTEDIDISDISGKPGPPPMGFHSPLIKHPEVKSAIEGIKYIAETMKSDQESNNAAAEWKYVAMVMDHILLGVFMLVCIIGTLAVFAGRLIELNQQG
T3 sequence (Q07001 22-517): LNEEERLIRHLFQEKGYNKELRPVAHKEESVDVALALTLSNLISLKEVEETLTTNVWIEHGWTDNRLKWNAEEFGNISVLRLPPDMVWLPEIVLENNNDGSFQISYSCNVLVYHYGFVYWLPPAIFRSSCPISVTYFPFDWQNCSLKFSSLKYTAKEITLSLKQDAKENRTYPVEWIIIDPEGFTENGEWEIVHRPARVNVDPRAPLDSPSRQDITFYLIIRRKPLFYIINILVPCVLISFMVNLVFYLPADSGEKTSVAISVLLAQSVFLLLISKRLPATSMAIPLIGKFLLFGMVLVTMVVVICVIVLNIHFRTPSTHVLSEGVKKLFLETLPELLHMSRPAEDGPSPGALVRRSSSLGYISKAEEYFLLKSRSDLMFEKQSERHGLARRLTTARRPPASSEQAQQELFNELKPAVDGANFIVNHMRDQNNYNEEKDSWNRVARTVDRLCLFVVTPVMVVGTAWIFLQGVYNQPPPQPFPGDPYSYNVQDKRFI
T3 sequence (P07510 23-517): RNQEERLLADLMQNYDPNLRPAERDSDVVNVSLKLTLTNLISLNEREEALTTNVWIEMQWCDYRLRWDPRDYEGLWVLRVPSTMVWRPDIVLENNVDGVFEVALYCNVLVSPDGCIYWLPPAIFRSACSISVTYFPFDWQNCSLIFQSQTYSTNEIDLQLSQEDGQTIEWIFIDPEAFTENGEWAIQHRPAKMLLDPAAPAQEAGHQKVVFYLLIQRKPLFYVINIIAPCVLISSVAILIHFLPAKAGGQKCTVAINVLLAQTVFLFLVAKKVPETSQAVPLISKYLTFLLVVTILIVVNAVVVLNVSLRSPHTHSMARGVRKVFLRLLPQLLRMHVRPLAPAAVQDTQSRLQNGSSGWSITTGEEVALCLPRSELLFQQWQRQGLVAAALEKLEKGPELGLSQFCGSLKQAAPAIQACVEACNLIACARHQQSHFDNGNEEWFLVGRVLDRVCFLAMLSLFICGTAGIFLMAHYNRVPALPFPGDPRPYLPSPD
T3 sequence (P11230 24-501, further chain): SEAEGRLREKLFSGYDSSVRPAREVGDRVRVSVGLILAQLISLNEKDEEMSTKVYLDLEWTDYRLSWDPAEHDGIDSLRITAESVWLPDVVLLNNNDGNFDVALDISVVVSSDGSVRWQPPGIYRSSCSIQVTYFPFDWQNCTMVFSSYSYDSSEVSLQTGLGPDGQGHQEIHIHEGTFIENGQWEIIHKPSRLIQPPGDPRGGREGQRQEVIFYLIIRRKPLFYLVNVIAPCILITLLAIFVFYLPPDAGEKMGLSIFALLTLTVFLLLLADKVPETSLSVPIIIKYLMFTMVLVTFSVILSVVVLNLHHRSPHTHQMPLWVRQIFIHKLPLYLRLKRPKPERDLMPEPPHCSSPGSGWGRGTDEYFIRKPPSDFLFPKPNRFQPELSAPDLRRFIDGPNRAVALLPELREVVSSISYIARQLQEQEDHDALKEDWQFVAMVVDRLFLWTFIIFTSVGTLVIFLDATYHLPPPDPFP

[3] = system: reserpine-induced tremors; assay: Reserpine-induced tremors in rats (tremor monitor power spectra); type: in vivo, rat; conditions: reserpine 1 mg/kg i.v.; compound 0.1 and 1.0 mg/kg s.c.; L-DOPA 100 mg/kg i.p. + benserazide
Text: Parkinson's disease is associated with severe dopamine deficiency caused by neurodegeneration of dopaminergic cell bodies residing in Substantia Nigra pars compacta. As alpha6 nAChRs are enriched in the nigrostriatal dopamine pathway, activating this receptor may ameliorate symptoms in nigro-striatal dopamine deficiency models. Reserpine injections to rodents result in depletion of monoamines in the nigro-striatal dopamine pathway, resulting in catalepsy and tremors. Both behaviours can be quantified using dedicated tremor boxes.
Six groups of male Sprague Dawley rats (250-300 grams) were subjected to the following treatment schedules, and effects on power spectra, assessed in automated tremor monitors were evaluated for 30 minutes: • Vehicle+vehicle • Vehicle+reserpine (1 mg/kg) • 9-Methyl-3-pyridin-3-yl-3,9-diaza-bicyclo[3.3.1]nonane (0.1 mg/kg)+reserpine (1 mg/kg) • 9-Methyl-3-pyridin-3-yl-3,9-diaza-bicyclo[3.3.1]nonane (1.0 mg/kg)+reserpine (1 mg/kg) • L-DOPA (100 mg/kg)+reserpine (1 mg/kg) • 9-Methyl-3-pyridin-3-yl-3,9-diaza-bicyclo[3.3.1]nonane (1.0 mg/kg)+L-DOPA (100 mg/kg)+reserpine (1 mg/kg)
Reserpine was pre-treated i.v. 60 minutes prior to test start in a dose volume of 2 ml/kg. 9-Methyl-3-pyridin-3-yl-3,9-diaza-bicyclo[3.3.1]nonane was pre-treated s.c. 45 minutes prior to test start in a dose volume of 1 ml/kg. The dose of 9-methyl-3-pyridin-3-yl-3,9-diaza-bicyclo[3.3.1]nonane was based on 3H-epibatidin displacement studies showing half maximal displacement of specific binding of 3H-epibatidin in doses equaling 0.15 mg/kg in rats. L-DOPA was pre-treated i.p. 30 minutes prior to test start in a dose volume of 5 ml/kg. […] All animals dosed with L-DOPA was also dosed with the peripherally acting decarboxylase inhibitor Benserazide to prevent the peripheral break down of L-DOPA (benserazide: 50 mg/kg, s.c., 30 min. prior to test start in a dose volume of 1 ml/kg).

T1 sequence (P02708 21-457): as the sequence (P02708 21-457) above
T1 sequence (P11230 24-501 partner): as the sequence (P11230 24-501, further chain) above
T1 sequence (P07510 23-517): as the sequence (P07510 23-517) above
T1 sequence (Q07001 22-517): as the sequence (Q07001 22-517) above

Compound: CN1C2CCCC1CN(c1cccnc1)C2 [9-methyl-3-pyridin-3-yl-3,9-diaza-bicyclo[3.3.1]nonane]
- efficacy [1]: practically no efficacy
- EC50 (α7): 13 µM
- Ki [2]: 0.32 µM
- effect on reserpine-induced tremors, AUC 40-63 Hz [3]: dose-related reversal of reserpine tremors reaching statistical significance at 1.0 mg/kg
- reversal of reserpine-induced reduction of low frequency movements (catalepsy), AUC 3-13 Hz [3]: Neither threshold dose of L-DOPA, nor 9-methyl-3-pyridin-3-yl-3,9-diaza-bicyclo[3.3.1]nonane or the combination of the two, was able to reverse this reduction
